Experimental data published in US20120129869A1, “PHOSPHORYLATION AND MUTATIONS OF ANAPLASTIC LYMPHOMA KINASE AS A DIAGNOSTIC AND THERAPEUTIC TARGET IN LUNG CANCER” (Academia Sinica, priority 2010, published 2012).

How the values were obtained:
H1299 cells [1] = assay: Anchorage-independent growth (soft agar) assay; assay type: cell-based; conditions: compared with DMSO control
Procedure: A total of 2×10^4 H1299 or NIH3T3 transfectants were mixed in a final 0.3% agarose and plated onto the 60-mm plate containing 0.5% agarose. These cells were further cultured in 5% CO2 incubator at 37° C. for one month. The plates were dehydrated at room temperature and then stained with 0.3% crystal violet for visualizing colonies. The colony numbers were counted by using Image-pro plus analysis program.

H1299 cells [2] = assay: Boyden chamber cell migration assay; assay type: cell-based; conditions: compared with DMSO control
Procedure: The cell migration capability was examined by Boyden chamber assay. Briefly, a total of 2×10^4 H1299 or NIH3T3 transfectants were inoculated into the cell migration insert (BD Biosciences) containing 350 μl DMEM medium alone, and the insert was placed into the well containing 750 μl complete DMEM medium in 24-well plate. After 24 hours incubation, the migrated cells were fixed with 100% methanol and stained by Giemsa's solution (Merck). The numbers of migrated cells were counted by using Image-pro plus analysis program.

[3] = test system: H1299 transfectants of wild type, H694R and E1384K ALKs; assay: WST-1 cell growth, wild type and mutated ALK transfectants together; assay type: cell-based; conditions: both wild type and mutated ALK transfectants
Source text: The full-length cDNA of ALK-wild type was inserted into pCDNA3.0 vector by restriction sites Hind III and Not I. All ALK mutations were generated from the template of pCDNA3.0-ALK-wild type full-length construct using site-directed mutagenesis. H1299 and NIH3T3 cells were maintained in Dulbecco's Modified Eagle Medium (DMEM) medium supplemented with 10% Fetal Bovine Serum (FBS) and streptomycin. The H1299 and NIH3T3 cells were transfected with the expression constructs by Lipofectamine 2000 (Invitrogen) and further selected by G418 to establish mixtures of ALK-expressed transfectants.
For analysis of cell growth, a total of 1×10^3 cells/well was seeded in 96-well plate. After different culturing time, 10 μl/well WST-1 reagent (Roche Diagnostics) was added for reaction at 37° C. for 50 minutes. The absorbance at 450 nm was measured.

[4] = test system: H694R and E1384K ALK H1299 transfectants xenograft; assay: In vivo xenograft tumor formation assay; parameters: species or system BALB/c NU mice; conditions: ALK mutations-bearing mice, 1 mg/kg/day intravenously, versus DMSO control
Procedure: (§1) Animal protocol was approved by the Institutional Animal Safety Committee. A total of 1×10^6 ALK-wild type or mutants expressed H1299 transfectants were mixed with matrigel (BD) and then subcutaneously injected into the right flank of four-week-old BALB/c NU mice. For WHI-P154 treatments, the nude mice were randomly divided into two groups when the mean tumor volume reached 20-50 mm^3. DMSO or WHI-P154 (1 mg/kg/day) was intravenously injected daily. The tumor volumes were measured weekly and calculated according to the formula: volume=length×width^2×0.52.

phosphorylated-Y1604 ALK [5] = assay: Western blotting of phosphorylated-Y1604 ALK expression in H1299 transfectants; assay type: cell-based; conditions: both wild type and mutated ALK transfectants
Source text: For Western blotting analysis, the membranes were probed with specific antibodies against HA (Covance), phospho-tyrosine (4G10; Upstate Biotechnology), STAT3 (sc-482; Santa Cruz) and α-tubulin (DM1A; NeoMarkers). The phospho-ALK (Tyr1604), phospho-Akt ([…]), phospho-STAT3 (Tyr705), phospho-ERK (Thr202/Tyr204), Akt and ERK antibodies were purchased from Cell Signaling. For IHC staining assay, the tissue sections were stained with specific antibodies against phospho-ALK (pY1604; Epitomics), ALK (4204-1; Epitomics), phospho-STAT3 (Tyr705, D3A7; Cell Signaling) and phospho-Akt (Ser473, 736E11; Cell Signaling). The ALK inhibitor WHI-P154 was purchased from Calbiochem.
Cells were lysed in RIPA buffer (200 mM Tris, 150 mM NaCl, 1 mM EDTA, 1% NP40, 1 mM PMSF, 1 mM DTT) with addition of 1× phosphatase inhibitor cocktail set II from Calbiochem and 1× cocktails of protease inhibitor from Roche. The protein concentration was measured by BCA protein assay kit (Pierce Chemical). The equal amounts of cell lysates were subjected to SDS-PAGE, transferred to NC membranes, and then probed with specific antibody for protein detection. For co-immunoprecipitation assay, the equal amounts of cell lysates were firstly incubated with anti-HA antibody for one hour and subsequently reacted with protein A/G for overnight. […]

[6] = test system: GFP-labeled H1299 transfectants of H694R and E1384K ALK; assay: In vivo metastasis assay (tail vein injected lung metastasis model); parameters: species or system nude mice; conditions: 1 mg/kg/day intravenously
Procedure: In order to examine the in vivo metastatic capability, ALK wild type or mutations expressed H1299 transfectants were infected with GFP-lentivirus to generate the GFP fluorescence-labeled cells. A total of 2×10^6 cells were injected into nude mice through tail vein for measuring lung metastasis. For investigation of the tumor suppressive effects using ALK inhibitor, the nude mice were intravenously injected daily with WHI-P154 (1 mg/kg/day) after cell inoculation for 14 days. The survival rate was recorded daily and scarified the rest mice after 105 days. The pulmonary metastasis of GFP-labeled H1299 transfectants were visualized by fluorescence stereomicroscope.

phosphorylated-Y1604 ALK [7] = assay: IHC staining of phosphorylated-Y1604 ALK in xenograft tumor sections; assay type: in vivo, nude mice; conditions: H694R and E1384K xenograft tumor sections, versus DMSO control
Procedure: Human lung cancer tissue arrays containing 37 normal lung and 263 lung cancer sections from Pantomics (Luc961, Luc962, Luc1501, Luc1502 and Luc1503) were deparaffinized and the frozen tumor sections from the xenograft nude mice were fixed in 3% formaldehyde solution. All sections were treated in 3% H2O2 buffer for 30 minutes to inactivate the endogenous peroxidase activities, and then treated with 0.01M sodium citrate buffer for antigen retrieval. After blocking with 10% normal goat serum, these sections were reacted with specific antibodies at 4° C. for overnight. Subsequently, these sections were incubated with Super Picture HRP polymer conjugate secondary antibody (Zymed Laboratories), and then stained with DAB chromagen (Zymed Laboratories). These sections were also stained with Hematoxylin (DAKO).
as §1

COc1cc2ncnc(Nc3ccc(O)c(Br)c3)c2cc1OC [WHI-P154]
inhibition of soft agar growth (H1299 cells [1]): profound inhibition | inhibition of cell migration (H1299 cells [2]): profound inhibition | inhibition of cell growth [3]: dose-dependent inhibition | tumor growth [4]: significant reduction of tumor growth | inhibition of expression of phosphorylated-Y1604 ALK (phosphorylated-Y1604 ALK [5]): dose-dependent inhibition | survival ([6]; mice with H694R and E1384K mutations): survive as long as control mice | lung metastasis ([6]; mutation-bearing mice): significantly suppresses lung metastasis | expression of phosphorylated-Y1604 ALK in tumor sections (phosphorylated-Y1604 ALK [7]): significant lower expression of phosphorylated-Y1604 ALK
